For one assay, the target named is T1, NK1 -receptor (substance P-receptor) (Homo sapiens, UniProt P25103).
T1 construct: intact human lymphoblastoma cells (IM-9) which express NK1 -receptors; endogenous in cells; host or cells: IM-9 human lymphoblastoma cells
T1 sequence (P25103 whole entry): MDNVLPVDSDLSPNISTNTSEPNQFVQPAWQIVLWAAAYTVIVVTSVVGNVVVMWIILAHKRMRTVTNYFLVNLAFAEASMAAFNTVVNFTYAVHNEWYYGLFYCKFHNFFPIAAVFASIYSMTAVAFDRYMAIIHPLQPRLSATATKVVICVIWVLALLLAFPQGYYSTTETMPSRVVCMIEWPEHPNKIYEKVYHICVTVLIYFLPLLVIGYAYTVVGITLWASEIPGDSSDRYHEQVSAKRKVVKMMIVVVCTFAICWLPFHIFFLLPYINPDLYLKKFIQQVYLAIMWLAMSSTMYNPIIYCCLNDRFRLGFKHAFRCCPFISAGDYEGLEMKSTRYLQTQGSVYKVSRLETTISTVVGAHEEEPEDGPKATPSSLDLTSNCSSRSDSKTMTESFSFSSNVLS
Put plainly: NK1-receptor affinity: displacement of 125I labelled substance P on intact human lymphoblastoma cells (IM-9). In kind it is binding. The conditions noted are these: Ki, intact human lymphoblastoma cells (IM-9) expressing NK1-receptors. On the procedure:
The receptor affinity for the NK1 -receptor (substance P-receptor) was determined on intact human lymphoblastoma cells (IM-9) which express NK1 -receptors, and the displacement of ^125 I labelled substance P was measured.
Turning to `COc1ccccc1C(CNC(=O)Cc1ccc(Cl)cc1)N1CCN(C2CCCCC2)CC1` (stereo not shown) [Example 61, N-[2-(2-Methoxyphenyl)-2-(4-cyclohexylpiperazine-1-yl)-ethyl]-2-(4-chlorophenyl)-acetamide], the inhibition constant Ki (in general, the dissociation constant of the complex between target and ligand, obtained from inhibition or displacement) came to 851 nM.

The same assay, now with this note: intact human lymphoblastoma cells (IM-9) expressing NK1-receptors, read-out: Ki.
On to `COc1ccccc1C(CNC(=O)Nc1cc(C(F)(F)F)cc(C(F)(F)F)c1)N1CCN(Cc2ccccc2)CC1` (stereo not shown) [Example 147], for which the Ki was 190 nM. Same read-out and setting: the value for `CCCN1CCN(C(CNCc2cc(C(F)(F)F)cc(C(F)(F)F)c2)c2ccccc2OC)CC1` (stereo not shown) [Example 32, 3,5-Bistrifluoromethylbenzyl-[2-(2-methoxyphenyl)-2-(4-(1-propyl)-piperazine-1-yl)-ethyl]-amine] was 23 nM; that for `COc1ccccc1C(CNC(=O)Nc1cc(C(F)(F)F)cc(C(F)(F)F)c1)N1CCN(Cc2ccc3c(c2)OCO3)CC1` (stereo not shown) [Example 148, N-3,5-Bistrifluoromethylphenyl-N'-[2-(2-methoxyphenyl)-2-(3,4-methylenedioxybenzyl-piperazine-1-yl)-ethyl]-urea] was 286 nM; that for `COc1ccccc1C(CNCc1cc(C(F)(F)F)cc(C(F)(F)F)c1)N1CCN(C2CCCC2)CC1` (stereo not shown) [Example 35, 3,5-Bistrifluoromethylbenzyl-[2-(2-methoxyphenyl)-2-(4-cyclopentylpiperazine-1-yl)-ethyl]-amine] was 16 nM. Consider `FC(F)(F)c1cc(CNCC(c2ccc(Cl)c(Cl)c2)N2CCN(C3CCCCC3)CC2)cc(C(F)(F)F)c1` (stereo not shown) [Example 49, 3,5-Bistrifluoromethylbenzyl-[2-(3,4-dichlorophenyl)-2-(4-cyclohexylpiperazine-1-yl]-ethyl]-amine], for which the inhibitory constant (Ki) amounted to 37 nM. As for `O=C(NCC(c1ccccc1)N1CCN(c2ccccc2)CC1)Nc1cc(C(F)(F)F)cc(C(F)(F)F)c1` (stereo not shown) [Example 123, N-3,5-Bistrifluoromethylphenyl-N'-[2-phenyl-2-(4-phenylpiperazine-1-yl)-ethyl]-urea], the Ki was determined as 600 nM. As to `FC(F)(F)c1cc(CNCC(c2ccccc2)N2CCOCC2)cc(C(F)(F)F)c1` (stereo not shown) [Example 96, 3,5-Bistrifluoromethylbenzyl-(2-phenyl-2-morpholine-4-yl-ethyl)-amine], the Ki is 185 nM.

As for `COc1ccccc1C(CNC(=O)Nc1cc(C(F)(F)F)cc(C(F)(F)F)c1)N1CCN(CCC2CCCCC2)CC1` (stereo not shown) [Example 121, N-3,5-Bistrifluoromethylphenyl-N'-[2-(2-methoxyphenyl)-2-(4-(2-cyclohexylethyl)piperazine-1-yl)-ethyl]-urea], the Ki was found to be 124 nM. On to `COc1ccccc1C(CNC(=O)Cc1ccc(Cl)c(Cl)c1)N1CCN(C2CCCCC2)CC1` (stereo not shown) [Example 62, N-[2-(2-Methoxyphenyl)-2-(4-cyclohexylpiperazine-1-yl)-ethyl]-2-(3,4-dichlorophenyl)-acetamide], for which the Ki is 276 nM. Still for that read-out and setting: the value for `COc1ccccc1C(CNCc1cc(C(F)(F)F)cc(C(F)(F)F)c1)N1CCN(c2ccccc2)CC1` (stereo not shown) [Example 1, 3,5-Bistrifluoromethylbenzyl-[2-(2-methoxyphenyl)-2-(4-phenylpiperazine-1-yl)-ethyl]-amine] was 333 nM; that for `COc1ccccc1NC(=O)NCC(c1ccccc1)N1CCN(C2CCCCC2)CC1` (stereo not shown) [Example 114, N-2-Methoxyphenyl-N'-[2-phenyl-2-(4-cyclohexylpiperazine-1-yl)-ethyl]-urea] was 490 nM. Still for that read-out and setting: the value for `COc1ccccc1C(CNC(=O)Nc1cc(C(F)(F)F)cc(C(F)(F)F)c1)N1CCCC(C)C1` (stereo not shown) [Example 169] was 888 nM; that for `COc1ccccc1C(CNC(=O)Nc1cc(C(F)(F)F)cc(C(F)(F)F)c1)N1CCC(C)CC1` (stereo not shown) [Example 170] was 84 nM; that for `COc1ccccc1C(CNCc1cc(C(F)(F)F)cc(C(F)(F)F)c1)N1CCC(C)CC1` (stereo not shown) [Example 82, 3,5-Bistrifluoromethylbenzyl-[2-(2-methoxyphenyl)-2-(4-methylpiperidine-1-yl)-ethyl]-amine] was 52 nM. The same measure, in the same setting: the value for `O=C(NCC(c1ccccc1)N1CCN(C2CCCCC2)CC1)Nc1cc(C(F)(F)F)cc(C(F)(F)F)c1` (stereo not shown) [Example 115, N-3,5-Bistrifluoromethylphenyl-N'-[2-phenyl-2-(4-cyclohexylpiperazine-1-yl)-ethyl]-urea] was 30 nM. Regarding `COc1ccccc1C(CNCc1cc(C(F)(F)F)cc(C(F)(F)F)c1)N1CCCC(c2ccccc2)C1` (single isomer, unassigned) [Example 86, 3,5-Bistrifluoromethylbenzyl-[2-(2-methoxyphenyl)-2-(3-phenylpiperidine-1-yl)-ethyl]-amine], the inhibition constant Ki was 368 nM.

Regarding `COc1ccccc1C(CNC(=O)Nc1cc(C(F)(F)F)cc(C(F)(F)F)c1)N1CCN(c2ccc3ccccc3n2)CC1` (stereo not shown) [Example 158, N-3,5-Bistrifluoromethylphenyl-N'-[2-(2-methoxyphenyl)-2-(4-(2-quinolinyl)piperazine-1-yl)-ethyl]-urea], the Ki is 905 nM.

As for `COc1ccccc1C(CNC(=O)Nc1cc(C(F)(F)F)cc(C(F)(F)F)c1)N1CCN(C2CCCCCC2)CC1` (stereo not shown) [Example 120, N-3,5-Bistrifluoromethylphenyl-N'-[2-(2-methoxyphenyl)-2-(4-cycloheptylpiperazine-1-yl)-ethyl]-urea], the Ki was determined as 36 nM. On the same count and under the same terms, the value for `COc1ccccc1C(CNCc1cc(C(F)(F)F)cc(C(F)(F)F)c1)N1CCN(Cc2ccccc2)CC1` (stereo not shown) [Example 22, 3,5-Bistrifluoromethylbenzyl-[2-(2-methoxyphenyl)-2-(4-benzylpiperazine-1-yl)-ethyl]-amine] was 154 nM; that for `COc1ccccc1C(CNCc1cc(C(F)(F)F)cc(C(F)(F)F)c1)N1CCN(c2ccc3ccccc3n2)CC1` (stereo not shown) [Example 29, 3,5-Bistrifluoromethylbenzyl-[2-(2-methoxyphenyl)-2-(4-(2-quinolinyl)-piperazine-1-yl)-ethyl]-amine] was 119 nM.

As to `O=C(NCC(c1ccccc1)N1CCCCC1)Nc1cc(C(F)(F)F)cc(C(F)(F)F)c1` (stereo not shown) [Example 167], the inhibition constant Ki was 1000 nM. Regarding `COc1ccccc1C(CNC(=O)Cc1cc(C(F)(F)F)cc(C(F)(F)F)c1)N1CCCCC1` (stereo not shown) [Example 78, N-[2-(2-Methoxyphenyl)-2-piperidin-1-yl-ethyl]-2-(3,5-bistrifluoromethylphenyl)acetamide], the inhibitory constant (Ki) is 250 nM. Take `O=C(NCC(c1ccccc1)N1CCN(C2CCCCC2)CC1)Nc1ccccc1` (stereo not shown) [Example 112, N-Phenyl-N'-[2-phenyl-2-(4-cyclohexylpiperazine-1-yl)-ethyl]-urea]: the Ki worked out at 1000 nM. On to `COc1ccccc1C(CNCc1cc(C(F)(F)F)cc(C(F)(F)F)c1)N1CC(C)CC(C)C1` (stereo not shown) [Example 83, 3,5-Bistrifluoromethylbenzyl-[2-(2-methoxyphenyl)-2-(3,5-dimethylpiperidine-1-yl)-ethyl]-amine], for which the Ki came to 209 nM. For the compound `COc1ccccc1C(CNCc1cc(C(F)(F)F)cc(C(F)(F)F)c1)N1CCCC(C)C1` (stereo not shown) [Example 81, 3,5-Bistrifluoromethylbenzyl-[2-(2-methoxyphenyl)-2-(3-methylpiperidine-1-yl)-ethyl]-amine], the Ki turned out to be 90 nM.

Turning to `COc1ccccc1C(CNC(=O)c1cc(C(F)(F)F)cc(C(F)(F)F)c1)N1CCCCC1` (stereo not shown) [Example 75, N-[2-(2-Methoxyphenyl)-2-piperidin-1-yl-ethyl]-3,5-bistrifluoromethylbenzamide], the inhibitory constant (Ki) was 700 nM. On the same count and under the same terms, the figure for `COc1ccccc1C(CNCc1cc(C(F)(F)F)cc(C(F)(F)F)c1)N1CCN(C2CCCCCC2)CC1` (stereo not shown) [Example 53, 3,5-Bistrifluoromethylbenzyl-[2-(2-methoxyphenyl)-2-(4-cycloheptylpiperazine-1-yl)-ethyl]-amine] is 5 nM; for `COc1ccccc1C(CNCc1cc(C(F)(F)F)cc(C(F)(F)F)c1)N1CCN(CCc2ccccc2)CC1` (stereo not shown) [Example 26, 3,5-Bistrifluoromethylbenzyl-[2-(2-methoxyphenyl)-2-(4-(2-phenylethyl)-piperazine-1-yl)-ethyl]-amine] it is 7 nM. Regarding `COc1ccccc1C(CNCCc1cc(C(F)(F)F)cc(C(F)(F)F)c1)N1CCN(C2CCCCC2)CC1` (stereo not shown) [Example 66, 2-(3,5-Bistrifluoromethylphenyl)-2'-(2-methoxyphenyl)-2'-(4-cyclohexylpiperazine-1-yl)-diethylamine], the Ki was determined as 23 nM. In the case of `CN1CCN(C(CNC(=O)Nc2cc(C(F)(F)F)cc(C(F)(F)F)c2)c2ccccc2)CC1` (stereo not shown) [Example 105, N-3,5-Bistrifluoromethylphenyl-N'-[2-phenyl-2-(4-methylpiperazine-1-yl)-ethyl]-urea], the Ki stood at 78 nM. Still for that read-out and setting: the figure for `COc1ccccc1C(CNC(=O)Nc1cc(C(F)(F)F)cc(C(F)(F)F)c1)N1CCN(C(C)c2ccccc2)CC1` (stereo not shown) [Example 151] is 215 nM.

Turning to `COc1ccccc1C(CN(Cc1cc(C(F)(F)F)cc(C(F)(F)F)c1)C(C)=O)N1CCN(c2ccccc2)CC1` (stereo not shown) [Example 2, N-3,5-Bistrifluoromethylbenzyl-N-[2-(2-methoxyphenyl)-2-(4-phenylpiperazine-1-yl)-ethyl]-acetamide], the Ki amounted to 909 nM.

`FC(F)(F)c1cc(CNCC(c2ccccc2)N2CCN(c3ccccc3)CC2)cc(C(F)(F)F)c1` (stereo not shown) [Example 3, 3,5-Bistrifluoromethylbenzyl-[2-phenyl-2-(4-phenylpiperazine-1-yl)-ethyl]-amine]: the Ki came to 800 nM.

Consider `COc1ccccc1C(CNC(=O)Nc1cc(C(F)(F)F)cc(C(F)(F)F)c1)N1CCN(c2ccccn2)CC1` (stereo not shown) [Example 156], for which the Ki is 479 nM. Same read-out and setting: the value for `COc1ccccc1C(CNCc1cc(C(F)(F)F)cc(C(F)(F)F)c1)N1CCN(C)CC1` (stereo not shown) [Example 31, 3,5-Bistrifluoromethylbenzyl-[2-(2-methoxyphenyl)-2-(4-methylpiperazine-1-yl)-ethyl]-amine] was 93 nM; that for `COc1ccccc1C(CNCc1cc(C(F)(F)F)cc(C(F)(F)F)c1)N1CCN(C(C)C)CC1` (stereo not shown) [Example 34, 3,5-Bistrifluoromethylbenzyl-[2-(2-methoxyphenyl)-2-(4-(2-propyl)-piperazine-1-yl)-ethyl]-amine] was 38 nM.

(Values after US6191135A, “Neurokinin antagonists” (Boehringer Ingelheim KG, priority 1994, dated 2001).)
